# Experimental data taken from BindingDB's records for PubMed 34491744 (National Center For Advancing Translational Sciences, 2021).
# Target: Galactokinase (Homo sapiens, UniProt P51570)
# Assay: Inhibition of recombinant human GALK1 using galactose as substrate incubated for 1 hrs in the presence of ATP by Kinase-Glo reagent based luminescence assay
# Chain of Galactokinase (P51570 whole entry): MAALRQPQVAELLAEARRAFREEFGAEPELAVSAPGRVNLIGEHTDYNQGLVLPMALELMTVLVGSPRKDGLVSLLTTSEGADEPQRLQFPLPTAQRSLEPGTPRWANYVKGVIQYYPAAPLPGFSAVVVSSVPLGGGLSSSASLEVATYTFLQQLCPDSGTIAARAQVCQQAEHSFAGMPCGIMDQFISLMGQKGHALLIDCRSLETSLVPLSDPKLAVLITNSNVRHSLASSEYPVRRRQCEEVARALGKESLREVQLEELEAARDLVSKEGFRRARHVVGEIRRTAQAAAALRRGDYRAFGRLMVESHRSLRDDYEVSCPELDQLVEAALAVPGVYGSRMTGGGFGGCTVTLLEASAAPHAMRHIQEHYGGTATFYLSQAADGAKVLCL
row,IC50,SMILES
1,6.31 µM,CC1=C(C(=O)NCc2ccccc2O)C(c2ccccc2Cl)N=C(Nc2nc3ccccc3o2)N1 (stereo not drawn)
2,1.58 µM,CC1=C(C(=O)NCc2cncn2C)C(c2ccccc2Cl)N=C(Nc2nc3ccccc3o2)N1 (stereo not drawn)
3,3.16 µM,CC1=C(C(=O)Nc2cc(C(=O)O)ccn2)C(c2ccccc2Cl)N=C(Nc2nc3cc(F)ccc3o2)N1 (stereo not drawn)
